Consider 13 substances from US20080311126A1, “Antisense Oligonucleotides Directed to Ribonucleotide Reducatase R2 and Uses Thereof in Combination Therapies for the Treatment of Cancer” (Genesense Technologies, Inc, priority 2004, published 2008).

Oligonucleotides are written 5' to 3', each unit as a sugar letter and its base; * is a phosphorothioate linkage, no mark a phosphodiester; rarer units and linkages stand in square brackets, end groups in braces. Plain capitals give the bases only. d = 2'-deoxy (DNA)

Holding throughout (assay): Relative colony forming efficiency (Example 17, Table 13)
Assay type in all cases: cell-based, human

The subject of data set [1] is MDA-MB-231 breast cell adenocarcinoma. The following applies: averages of 2-8 determinations. The procedure:
(§1) Colony forming efficiency was determined using standard protocols. […] The test oligonucleotides were added to cell cultures in the presence of 2.5 μg of DOTMA/DOPE (Lipofectin; Life Technologies, Inc.) for four hours. The oligonucleotide was tested at 0.2 μM unless otherwise indicated. Controls were the cultures treated with lipofectin but without the oligonucleotide. […] Surviving cells were visualized by methylene blue staining, and colonies were scored. In some experiments cell aliquots were removed from the culture and viability was determined using the trypan blue exclusion test. Results were analyzed as percent of surviving cells compared to control cells. To test the antisense effects of many of these sequences as phosphorthioate deoxyribonucleotides, they were examined in relative colony forming experiments conducted as described in Example 16 with a series of human tumour cell lines. The results (shown as % inhibition of colony forming ability) obtained with cancer cells derived from the bladder, breast, lung, colon, pancreas, prostate, liver and cervix, are shown in Table 13. The specific cell lines employed are as follows: […]

The subject of data set [2] is T24 bladder cell carcinoma. The note with it: averages of 2-8 determinations. How it is done: as §1
Data set [3] concerns PC-3 prostrate cell adenocarcinoma. The note with it: averages of 2-8 determinations. The procedure: as §1
Data set [4] has as its system MDA PaCa-2 pancreatic cell carcinoma. The note with it: MIA PaCa-2 pancreatic cell carcinoma; averages of 2-8 determinations. How it is done:
as §1

The test system of the next data set is A549 lung cell carcinoma. The note with it: averages of 2-8 determinations. The procedure: as §1
For data set [5], the system named is HCT116 colon cell carcinoma. The following applies: averages of 2-8 determinations. How it is done:
as §1

The subject of data set [6] is HepG2 hepatocellular carcinoma. The following applies: averages of 2-8 determinations. The procedure:
as §1

As for “TCGCCTACTCTCTTCTCAAA (antisense dT*dC*dG*dC*dC*dT*dA*dC*dT*dC*dT*dC*dT*dT*dC*dT*dC*dA*dA*dA) [AS-II-1278-20]”, the “Reduced relative colony forming efficiency, MDA-MB-231 (% inhibition of colony forming ability)” value in data set [1] was 90.68%. Further, in data set [2], the “Reduced relative colony forming efficiency, T24 (% inhibition of colony forming ability)” value is reported as 65.42%. Also, the “Reduced relative colony forming efficiency, PC-3 (% inhibition of colony forming ability)” value in data set [3] was 85.31%. Also, in data set [4], the “Reduced relative colony forming efficiency, MIA PaCa-2 (% inhibition of colony forming ability)” value was 57.05%.

Turning to “TTCATGGTGTGGCTAGTTGG (antisense dT*dT*dC*dA*dT*dG*dG*dT*dG*dT*dG*dG*dC*dT*dA*dG*dT*dT*dG*dG) [AS-II-1438-20]”, the “Reduced relative colony forming efficiency, MDA-MB-231 (% inhibition of colony forming ability)” value in data set [1] was found to be 69.06%. Moreover, in data set [2], the “Reduced relative colony forming efficiency, T24 (% inhibition of colony forming ability)” value came to 43.7%. Further, the “Reduced relative colony forming efficiency, A549 (% inhibition of colony forming ability)” value in the data set with A549 lung cell carcinoma is recorded as 51.27%. In data set [3], the “Reduced relative colony forming efficiency, PC-3 (% inhibition of colony forming ability)” value was 83.96%. Further, the “Reduced relative colony forming efficiency, MIA PaCa-2 (% inhibition of colony forming ability)” value in data set [4] stood at 42.13%.

For “AAACGGCTTCTCACACATAT (antisense dA*dA*dA*dC*dG*dG*dC*dT*dT*dC*dT*dC*dA*dC*dA*dC*dA*dT*dA*dT) [AS-II-2151-20]”, in data set [1], the “Reduced relative colony forming efficiency, MDA-MB-231 (% inhibition of colony forming ability)” value came out at 95.14%. The “Reduced relative colony forming efficiency, T24 (% inhibition of colony forming ability)” value in data set [2] is 79.83%. Moreover, in the data set with A549 lung cell carcinoma, the “Reduced relative colony forming efficiency, A549 (% inhibition of colony forming ability)” value is 79.19%. Besides, the “Reduced relative colony forming efficiency, PC-3 (% inhibition of colony forming ability)” value in data set [3] is 84.86%. Moreover, in data set [4], the “Reduced relative colony forming efficiency, MIA PaCa-2 (% inhibition of colony forming ability)” value is on record as 62.15%.

Regarding “GGCCCAGATCACCCCTAAAT (antisense dG*dG*dC*dC*dC*dA*dG*dA*dT*dC*dA*dC*dC*dC*dC*dT*dA*dA*dA*dT) [AS-II-2128-20]”, the “Reduced relative colony forming efficiency, MDA-MB-231 (% inhibition of colony forming ability)” value in data set [1] is reported as 91.3%. Moreover, the “Reduced relative colony forming efficiency, T24 (% inhibition of colony forming ability)” value in data set [2] is listed as 83.74%. Further, in the data set on A549 lung cell carcinoma, the “Reduced relative colony forming efficiency, A549 (% inhibition of colony forming ability)” value was found to be 87.31%. In addition, the “Reduced relative colony forming efficiency, PC-3 (% inhibition of colony forming ability)” value in data set [3] turned out to be 88.89%. For the same substance, the “Reduced relative colony forming efficiency, MIA PaCa-2 (% inhibition of colony forming ability)” value in data set [4] was determined as 39.23%.

“AACCGGAAAAGAAAATGCCT (antisense dA*dA*dC*dC*dG*dG*dA*dA*dA*dA*dG*dA*dA*dA*dA*dT*dG*dC*dC*dT) [AS-II-890-20]”: the “Reduced relative colony forming efficiency, MDA-MB-231 (% inhibition of colony forming ability)” value in data set [1] was 88.2%. Besides, the “Reduced relative colony forming efficiency, T24 (% inhibition of colony forming ability)” value in data set [2] is on record as 82.07%. Moreover, the “Reduced relative colony forming efficiency, A549 (% inhibition of colony forming ability)” value in the data set on A549 lung cell carcinoma is listed as 81.6%. In addition, the “Reduced relative colony forming efficiency, PC-3 (% inhibition of colony forming ability)” value in data set [3] is reported as 87.93%. For the same substance, in data set [4], the “Reduced relative colony forming efficiency, MIA PaCa-2 (% inhibition of colony forming ability)” value was found to be 66.02%.

On to “TTTTAACTGGCTGTGCTGGT (antisense dT*dT*dT*dT*dA*dA*dC*dT*dG*dG*dC*dT*dG*dT*dG*dC*dT*dG*dG*dT) [AS-II-1666-20]”, for which the “Reduced relative colony forming efficiency, MDA-MB-231 (% inhibition of colony forming ability)” value in data set [1] was 26.71%. The “Reduced relative colony forming efficiency, T24 (% inhibition of colony forming ability)” value in data set [2] stood at 71.71%. Also, in the data set on A549 lung cell carcinoma, the “Reduced relative colony forming efficiency, A549 (% inhibition of colony forming ability)” value is on record as 54.82%. In data set [3], the “Reduced relative colony forming efficiency, PC-3 (% inhibition of colony forming ability)” value was determined as 86.06%. The “Reduced relative colony forming efficiency, MIA PaCa-2 (% inhibition of colony forming ability)” value in data set [4] is 49.72%.

For the substance “TATCGCCGCCGTGAGTACAA (antisense dT*dA*dT*dC*dG*dC*dC*dG*dC*dC*dG*dT*dG*dA*dG*dT*dA*dC*dA*dA) [AS-II-1768-20]”, the “Reduced relative colony forming efficiency, MDA-MB-231 (% inhibition of colony forming ability)” value in data set [1] was found to be 91.56%. In data set [2], the “Reduced relative colony forming efficiency, T24 (% inhibition of colony forming ability)” value worked out at 74.56%. Besides, the “Reduced relative colony forming efficiency, A549 (% inhibition of colony forming ability)” value with A549 lung cell carcinoma came to 86.8%. For the same substance, in data set [3], the “Reduced relative colony forming efficiency, PC-3 (% inhibition of colony forming ability)” value is recorded as 86.36%. For the same substance, in data set [4], the “Reduced relative colony forming efficiency, MIA PaCa-2 (% inhibition of colony forming ability)” value was determined as 60.36%.

With “ATGGTACTCGATGGGGAAGA (chemistry not given here) [AS-II-439-20]”, the “Reduced relative colony forming efficiency, T24 (% inhibition of colony forming ability)” value in data set [2] was determined as 67.84%. Moreover, the “Reduced relative colony forming efficiency, A549 (% inhibition of colony forming ability)” value in the data set on A549 lung cell carcinoma was 76.46%. Moreover, the “Reduced relative colony forming efficiency, HCT116 (% inhibition of colony forming ability)” value in data set [5] is on record as 64.7%. Also, in data set [3], the “Reduced relative colony forming efficiency, PC-3 (% inhibition of colony forming ability)” value is 77.66%. The “Reduced relative colony forming efficiency, HepG2 (% inhibition of colony forming ability)” value in data set [6] stood at 73.04%. Further, the “Reduced relative colony forming efficiency, MIA PaCa-2 (% inhibition of colony forming ability)” value in data set [4] was found to be 92.69%.

For “TGGCACCAACTGACTAATAT (antisense dT*dG*dG*dC*dA*dC*dC*dA*dA*dC*dT*dG*dA*dC*dT*dA*dA*dT*dA*dT) [AS-II-1976-20]”, the “Reduced relative colony forming efficiency, MDA-MB-231 (% inhibition of colony forming ability)” value in data set [1] was found to be 89.6%. Further, in data set [3], the “Reduced relative colony forming efficiency, PC-3 (% inhibition of colony forming ability)” value was 88.16%.

In the case of “AS-II-134220 (antisense dG*dA*dA*dG*dT*dC*dA*dG*dC*dA*dT*dC*dC*dA*dA*dG*dG*dT*dA*dA)”, the “Reduced relative colony forming efficiency, T24 (% inhibition of colony forming ability)” value in data set [2] is recorded as 59.76%. Further, the “Reduced relative colony forming efficiency, A549 (% inhibition of colony forming ability)” value in the data set on A549 lung cell carcinoma is 65.67%. Further, in data set [5], the “Reduced relative colony forming efficiency, HCT116 (% inhibition of colony forming ability)” value is listed as 73.74%. Further, the “Reduced relative colony forming efficiency, PC-3 (% inhibition of colony forming ability)” value in data set [3] amounted to 89.84%. Besides, in data set [6], the “Reduced relative colony forming efficiency, HepG2 (% inhibition of colony forming ability)” value is 82.2%. Moreover, the “Reduced relative colony forming efficiency, MIA PaCa-2 (% inhibition of colony forming ability)” value in data set [4] was determined as 73.77%.

Take “CAGAATATCGACGCAAAAGA (dC*dA*dG*dA*dA*dT*dA*dT*dC*dG*dA*dC*dG*dC*dA*dA*dA*dA*dG*dA) [AS-II-909-20]”: the “Reduced relative colony forming efficiency, MDA-MB-231 (% inhibition of colony forming ability)” value in data set [1] was 45.96%. Besides, in data set [2], the “Reduced relative colony forming efficiency, T24 (% inhibition of colony forming ability)” value was 78.57%. Also, the “Reduced relative colony forming efficiency, A549 (% inhibition of colony forming ability)” value with A549 lung cell carcinoma amounted to 78.68%. Further, the “Reduced relative colony forming efficiency, PC-3 (% inhibition of colony forming ability)” value in data set [3] is on record as 84.86%. In data set [4], the “Reduced relative colony forming efficiency, MIA PaCa-2 (% inhibition of colony forming ability)” value was 46.13%.

Turning to “TGGCTGTGCTGGTTAAAGGA (antisense dT*dG*dG*dC*dT*dG*dT*dG*dC*dT*dG*dG*dT*dT*dA*dA*dA*dG*dG*dA) [AS-II-1659-20]”, the “Reduced relative colony forming efficiency, MDA-MB-231 (% inhibition of colony forming ability)” value in data set [1] was determined as 42.86%. Moreover, the “Reduced relative colony forming efficiency, T24 (% inhibition of colony forming ability)” value in data set [2] turned out to be 74.09%. Besides, the “Reduced relative colony forming efficiency, A549 (% inhibition of colony forming ability)” value in the data set with A549 lung cell carcinoma was determined as 54.7%. For the same substance, the “Reduced relative colony forming efficiency, PC-3 (% inhibition of colony forming ability)” value in data set [3] is on record as 81.56%. Besides, the “Reduced relative colony forming efficiency, MIA PaCa-2 (% inhibition of colony forming ability)” value in data set [4] stood at 42.54%.

As for “ATTAAAATCTGCGTTGAAGC (antisense dA*dT*dT*dA*dA*dA*dA*dT*dC*dT*dG*dC*dG*dT*dT*dG*dA*dA*dG*dC) [AS-II-1700-20]”, the “Reduced relative colony forming efficiency, MDA-MB-231 (% inhibition of colony forming ability)” value in data set [1] is 30.75%. Also, the “Reduced relative colony forming efficiency, T24 (% inhibition of colony forming ability)” value in data set [2] came out at 70.94%. The “Reduced relative colony forming efficiency, A549 (% inhibition of colony forming ability)” value with A549 lung cell carcinoma worked out at 77.28%. The “Reduced relative colony forming efficiency, PC-3 (% inhibition of colony forming ability)” value in data set [3] is reported as 90.63%. In addition, the “Reduced relative colony forming efficiency, MIA PaCa-2 (% inhibition of colony forming ability)” value in data set [4] came out at 34.52%.
